Measured values as given in patent US9556229B2, “Modification of peptides using a bis(thioether)arylbridge approach” (priority 2012, dated 2017).
Starred links: 1 amine or outer side, 2 acyl side, 3 side chain; linkers in the order of their positions; H or OH if unused. Positions of bridges follow the written chain, without caps; N, C: chain ends. Non-standard residues stand in square brackets, D forms with d. Residues, ends and D or L forms follow the SMILES beside them. ξ: configuration not given here. *: point of attachment. X2 = Cc1cn([C@H]2C[C@H](n3cc(CCCC(=O)*)nn3)[C@@H](CO)O2)c(=O)[nH]c1=O; Phe(F5) = N[C@@H](Cc1c(F)c(F)c(F)c(F)c1F)C(=O)O; Pro(4R-Bn) = O=C(O)[C@@H]1C[C@@H](Cc2ccccc2)CN1; Chlorambucil = O=C(CCCc1ccc(N(CCCl)CCCl)cc1)*; X1 = O=C(Cc1ccc(CSCCCCN[*:1])cc1)[*:2]; 1Nal = N[C@@H](Cc1cccc2ccccc12)C(=O)O; 2Nal = N[C@@H](Cc1ccc2ccccc2c1)C(=O)O; mXylylene = c1cc(C[*:1])cc(C[*:2])c1; oXylylene = c1ccc(C[*:2])c(C[*:1])c1; Cha = N[C@@H](CC1CCCCC1)C(=O)O; Cysteamide = C(CS[*:3])N[*:1]; Tle = CC(C)(C)[C@H](N)C(=O)O; Nicotinoyl = O=C(c1cccnc1)*; ξDisc = O=C(O)C1NCc2ccccc21; β3hP = O=C(O)C[C@@H]1CCCN1; NMeA = CN[C@@H](C)C(=O)O; Inp = O=C(O)C1CCNCC1; Ahx = NCCCCCC(=O)O

What was measured:
[1] = system: HCT116 colorectal cancer cells
[2] = system: MDA-MB-231 breast cancer cell line
[3] = system: MCF-7 breast cancer cell line; assay: Cell viability, MCF-7, PrestoBlue assay; assay type: cell-based; settings: NA = not active
Procedure: To test our theory we decided to focus on Smac multimers. First, we synthesized a small library of Smac compounds (see, Tables 3 and 4) varying in position 4 substituents having general structure N-MeAla-Tle-4-(trans-Bn)-Pro-Xaa-NHCH2CH2—SH (SEQ ID NO:38), which were tested in vitro using MDA-MB-231 and MCF-7 breast cancer cell lines and PrestoBlue™ assay (Invitrogen).

Structure (SMILES) | EC50 [1] [µM] | EC50 [2] [µM] | EC50 [3] [µM]
N=C(N)NCCC[C@H](NC(=O)[C@H](Cc1c(F)c(F)c(F)c(F)c1F)NC(=O)[C@H](CCCNC(=N)N)NC(=O)[C@@H](CCCNC(=N)N)NC(=O)CCCCCNC(=O)CCCc1ccc(N(CCCl)CCCl)cc1)C(=O)N[C@@H]1CSCc2ccccc2CSC[C@@H](C(=O)N[C@H](CCCNC(=N)N)C(=O)N[C@@H](CC2CCCCC2)C(=O)N[C@@H](CCCNC(=N)N)C(=O)N2Cc3ccccc3C2C(N)=O)NC(=O)[C@H](Cc2cccc3ccccc23)NC(=O)[C@H](Cc2ccc(O)cc2)NC1=O (stereo partly drawn) [ArB14Co-CLB, CLB-Ahx-Arg-Arg-PhF-Arg-Cys-Tyr-Na1-Cys-Arg-Cha-Arg-DISC] ({Chlorambucil-Ahx}-[dR]R[Phe(F5)]R[dC]Y[1Nal]C[dR][Cha]R[ξDisc]-NH2; linker 5-8 via oXylylene) | 7.5 ± 1.1 | – | –
C[C@@H](O)[C@H](N)C(=O)N[C@@H](CO)C(=O)N[C@@H](Cc1ccccc1)C(=O)N[C@@H](CCCNC(=N)N)C(=O)N[C@@H](CCCNC(=N)N)C(=O)N[C@@H](Cc1ccc(O)cc1)C(=O)N[C@H]1CSCc2cccc(c2)CSC[C@@H](C(=O)N[C@@H](CO)C(=O)N2CCC[C@H]2C(N)=O)NC(=O)[C@H](CCCNC(=N)N)NC(=O)[C@H](CCCNC(=N)N)NC1=O [ArB14Dm] | 118 | – | –
C[C@@H]1NC(=O)[C@H](CCCNC(=N)N)NC(=O)C[C@@H]2CCCN2C(=O)Cc2ccc(cc2)CSCCCCNC(=O)C2CCN(CC2)C(=O)[C@@H](CCCCN)NC(=O)[C@H](CCCNC(=N)N)NC(=O)[C@@H](Cc2c[nH]c3ccccc23)NC(=O)[C@H](C)NC(=O)[C@H](CCCNC(=N)N)NC(=O)C[C@@H]2CCCN2C(=O)Cc2ccc(cc2)CSCCCCNC(=O)C2CCN(CC2)C(=O)[C@@H](CCCCN)NC(=O)[C@H](CCCNC(=N)N)NC(=O)[C@@H](Cc2c[nH]c3ccccc23)NC1=O [ArBMim, [-Bmpa-bhPro-Arg-Ala-Trp-Arg-Lys-Inp-CH2CH2CH2CH2-S-]2] (cyclo([Inp][X1][β3hP]RA[dW]R[dK][Inp][X1][β3hP]RA[dW]R[dK])) | 23.4 ± 2.1 | – | –
N=C(N)NCCC[C@@H](N)C(=O)N[C@@H](CCCNC(=N)N)C(=O)N[C@@H](Cc1ccc2ccccc2c1)C(=O)N[C@@H](CCCNC(=N)N)C(=O)N[C@@H]1CSCc2ccccc2CSC[C@@H](C(=O)N[C@H](CCCNC(=N)N)C(=O)N[C@@H](CC2CCCCC2)C(=O)N[C@@H](CCCNC(=N)N)C(=O)N2Cc3ccccc3C2C(N)=O)NC(=O)[C@H](Cc2cccc3ccccc23)NC(=O)[C@H](Cc2ccc(O)cc2)NC1=O (stereo partly drawn) [ArB14Bo, Arg-Arg-Na2-Arg-Cys-Tyr-Na1-Cys-Arg-Cha-Arg-DISC] (H-[dR]R[2Nal]R[dC]Y[1Nal]C[dR][Cha]R[ξDisc]-NH2; linker 5-8 via oXylylene; N-terminus assumed) | 10.7 ± 0.7 | – | –
CC(C)C[C@H](NC(=O)[C@H](CCCNC(=N)N)NC(=O)[C@H](CS)NC(=O)[C@H](Cc1c[nH]c2ccccc12)NC(=O)[C@H](Cc1ccc(O)cc1)NC(=O)[C@H](CCCNC(=N)N)NC(=O)[C@H](CS)NC(=O)[C@H](Cc1ccccc1)NC(=O)[C@@H](N)CCCNC(=N)N)C(=O)N[C@@H](CCCNC(=N)N)C(=O)N1CCC[C@H]1C(N)=O [ArB15F/Gr] (H-RFCRYWCRLRP-NH2; N-terminus assumed) | > 250 | – | –
C[C@@H](O)[C@H](N)C(=O)N[C@@H](CO)C(=O)N[C@@H](Cc1ccccc1)C(=O)N[C@@H](CCCNC(=N)N)C(=O)N[C@@H](CCCNC(=N)N)C(=O)N[C@@H](Cc1ccc(O)cc1)C(=O)N[C@H]1CS(=O)(=O)Cc2cccc(c2)CS(=O)(=O)C[C@@H](C(=O)N[C@@H](CO)C(=O)N2CCC[C@H]2C(N)=O)NC(=O)[C@H](CCCNC(=N)N)NC(=O)[C@H](CCCNC(=N)N)NC1=O [ArB14Dmx] | 142 | – | –
CC(C)C[C@H](NC(=O)[C@H](CCCNC(=N)N)NC(=O)[C@H](CS)NC(=O)[C@H](Cc1c[nH]c2ccccc12)NC(=O)[C@H](Cc1ccc(O)cc1)NC(=O)[C@H](CCCNC(=N)N)NC(=O)[C@H](CS)NC(=O)[C@H](Cc1ccccc1)NC(=O)[C@H](CCCNC(=N)N)NC(=O)c1cccnc1)C(=O)N[C@@H](CCCNC(=N)N)C(=O)N1CCC[C@H]1C(N)=O [ArB15F/GNicr] (Nicotinoyl-RFCRYWCRLRP-NH2) | 64.5 | – | –
CC(C)C[C@H](NC(=O)[C@H]1CSCc2ccc(cc2)CSC[C@@H](NC(=O)[C@H](C)NC(=O)[C@H](Cc2ccccc2)NC(=O)[C@H](CO)NC(=O)[C@@H](N)[C@@H](C)O)C(=O)N[C@@H](Cc2ccc(O)cc2)C(=O)N[C@@H](Cc2c[nH]c3ccccc23)C(=O)NCC(=O)N1)C(=O)N[C@@H](CO)C(=O)N1CCC[C@H]1C(N)=O [ArB15Cp] | > 250 | – | –
CC(C)C[C@H](NC(=O)[C@H](CCCNC(=N)N)NC(=O)[C@@H]1CSCc2cccc(c2)CSC[C@H](NC(=O)[C@H](Cc2ccccc2)NC(=O)[C@H](CCCNC(=N)N)NC(=O)c2cccnc2)C(=O)N[C@@H](CCCNC(=N)N)C(=O)N[C@@H](Cc2ccc(O)cc2)C(=O)N[C@@H](Cc2c[nH]c3ccccc23)C(=O)N1)C(=O)N[C@@H](CCCNC(=N)N)C(=O)N1CCC[C@H]1C(N)=O [ArB15GNicm] (Nicotinoyl-RFCRYWCRLRP-NH2; linker 3-7 via mXylylene) | 126 | – | –
CC(C)C[C@H](NC(=O)[C@H](CCCNC(=N)N)NC(=O)[C@@H]1CSCc2ccccc2CSC[C@H](NC(=O)[C@H](Cc2ccccc2)NC(=O)[C@@H](N)CCCNC(=N)N)C(=O)N[C@@H](CCCNC(=N)N)C(=O)N[C@@H](Cc2ccc(O)cc2)C(=O)N[C@@H](Cc2c[nH]c3ccccc23)C(=O)N1)C(=O)N[C@@H](CCCNC(=N)N)C(=O)N1CCC[C@H]1C(N)=O [ArB15Fo] (H-RFCRYWCRLRP-NH2; linker 3-7 via oXylylene; N-terminus assumed) | 49.6 | – | –
CC(C)C[C@H](NC(=O)[C@@H](C)NC(=O)[C@@H]1CSCc2ccccc2CSC[C@@H](NC(=O)[C@H](C)NC(=O)[C@H](Cc2ccccc2)NC(=O)[C@H](CO)NC(=O)[C@@H](N)[C@@H](C)O)C(=O)N[C@@H](Cc2ccc(O)cc2)C(=O)N[C@@H](Cc2c[nH]c3ccccc23)C(=O)N1)C(=O)N[C@@H](CO)C(=O)N1CCC[C@H]1C(N)=O [ArB14o] | 249 | – | –
Cc1cn([C@H]2C[C@H](n3cc(CCCC(=O)N[C@H](CCCNC(=N)N)C(=O)N[C@@H](CCCNC(=N)N)C(=O)N[C@@H](Cc4c(F)c(F)c(F)c(F)c4F)C(=O)N[C@@H](CCCNC(=N)N)C(=O)N[C@@H]4CSCc5ccccc5CSC[C@@H](C(=O)N[C@H](CCCNC(=N)N)C(=O)N[C@@H](CC5CCCCC5)C(=O)N[C@@H](CCCNC(=N)N)C(=O)N5Cc6ccccc6C5C(N)=O)NC(=O)[C@H](Cc5cccc6ccccc56)NC(=O)[C@H](Cc5ccc(O)cc5)NC4=O)nn3)[C@@H](CO)O2)c(=O)[nH]c1=O (stereo partly drawn) [ArB14Co-AZT, AZT-Arg-Arg-PhF-Arg-Cys-Tyr-Na1-Cys-Arg-Cha-Arg-DISC] (X2-[dR]R[Phe(F5)]R[dC]Y[1Nal]C[dR][Cha]R[ξDisc]-NH2; linker 5-8 via oXylylene; N-terminus assumed) | 30.2 ± 2.5 | – | –
CN[C@@H](C)C(=O)N[C@H](C(=O)N1C[C@H](Cc2ccccc2)C[C@H]1C(=O)N[C@@H](Cc1c[nH]c2ccccc12)C(=O)NCCS)C(C)(C)C [SMAC19, N^MeAla-Tle-(4-Bzl)Pro-Trp-NHCH2CH2SH] (H-[NMeA][Tle][Pro(4R-Bn)]W-Cysteamide; N-terminus assumed) | – | 36.7 ± 3.2 | 27.6 ± 1.8
